According to US11939304B1, “Ethyl 6-(5-(3-fluorophenyl)-4-phenyl-4H-1,2,4-triazol-3-ylthio)hexanoate as an antimicrobial compound” (KING FAISAL UNIVERSITY, priority 2023, dated 2024):

Tests used:
Bacillus cereus = assay: agar plate disc-diffusion, antibacterial inhibition zone; type: cell-based; settings: nutrient agar, 37° C., 48 hours, DMSO zone subtracted
Description: (§1) The agar plate disc-diffusion method was applied. […] The discs were then placed onto the surface of agar plates (nutrient agar for bacteria and Sabouraud's dextrose agar for fungi) seeded with the test organism. Each plate contained 15 mL of the agar medium, previously seeded with 0.2 mL of the broth culture of each organism pregrown for 18 hours. The plates were incubated at 37° C. for 48 hours, and 72 hours for fungi. The inhibition zones were measured in mm. Discs impregnated with DMSO were used as a control, and its inhibition zone was subtracted from the tested compound actual inhibition zone.

Escherichia coli = assay: as above; type: cell-based; settings: nutrient agar, 37° C., 48 hours, DMSO zone subtracted
Description: as §1

Pseudomonas aeruginosa = assay: as above; type: cell-based; settings: nutrient agar, 37° C., 48 hours, DMSO zone subtracted
Description: as §1

Staphylococcus aureus = assay: as above; type: cell-based; settings: nutrient agar, 37° C., 48 hours, DMSO zone subtracted
Description: as §1

Aspergillus flavus = assay: agar plate disc-diffusion, antifungal inhibition zone; type: cell-based; settings: Sabouraud's dextrose agar, 37° C., 72 hours, DMSO zone subtracted
Description: as §1

[1] = test system: Chrysosporium keratinophilum; assay: as above; type: cell-based; settings: Sabouraud's dextrose agar, 37° C., 72 hours, DMSO zone subtracted
Description: as §1

[2] = A = concentration of comp. = 10,000 μL
[3] = B = concentration of comp. = 30,000 μL
[4] = C = concentration of comp. = 50,000 μL

Compound: CCOC(=O)CCCCCSc1nnc(-c2cccc(F)c2)n1-c1ccccc1 [III, ethyl 6-(5-(3-fluorophenyl)-4-phenyl-4H-1,2,4-triazol-3-ylthio)hexanoate]
- inhibition zone, Bacillus Cereus, A (Bacillus cereus; [2]): 28 mm
- inhibition zone, Bacillus Cereus, B (Bacillus cereus; [3]): 30 mm
- inhibition zone, Bacillus Cereus, C (Bacillus cereus; [4]): 41 mm
- inhibition zone, Escherichia coli, A (Escherichia coli; [2]): 27 mm
- inhibition zone, Escherichia coli, B (Escherichia coli; [3]): 35 mm
- inhibition zone, Escherichia coli, C (Escherichia coli; [4]): 50 mm
- inhibition zone, Pseudomonas aeruginosa, A (Pseudomonas aeruginosa; [2]): 26 mm
- inhibition zone, Pseudomonas aeruginosa, B (Pseudomonas aeruginosa; [3]): 29 mm
- inhibition zone, Pseudomonas aeruginosa, C (Pseudomonas aeruginosa; [4]): 41 mm
- inhibition zone, Staphylococcus aureus, A (Staphylococcus aureus; [2]): 12 mm
- inhibition zone, Staphylococcus aureus, B (Staphylococcus aureus; [3]): 19 mm
- inhibition zone, Staphylococcus aureus, C (Staphylococcus aureus; [4]): 23 mm
- inhibition zone, Aspergillus flavus, A (Aspergillus flavus; [2]): 24 mm
- inhibition zone, Aspergillus flavus, B (Aspergillus flavus; [3]): 27 mm
- inhibition zone, Aspergillus flavus, C (Aspergillus flavus; [4]): 38 mm
- inhibition zone, Chrysosporium keratinophilum, A [1, 2]: 23 mm
- inhibition zone, Chrysosporium keratinophilum, B [1, 3]: 28 mm
- inhibition zone, Chrysosporium keratinophilum, C [1, 4]: 42 mm
- melting point: 107 to 109 °C
